Square brackets hold non-standard residues; d marks the D form. Peptide text beside a SMILES is read from it. * marks the point of attachment. Tyr(3-Cl) = N[C@@H](Cc1ccc(O)c(Cl)c1)C(=O)O; Benzoyl(3,5-Cl2) = O=C(c1cc(Cl)cc(Cl)c1)*; Lys(Et2) = CCN(CC)CCCC[C@H](N)C(=O)O; Gly(cPent) = N[C@H](C(=O)O)C1CCCC1; NH(propargyl) = C#CCN*
What was measured:
CBX2 ChD = target: T1, CBX2 ChD (Homo sapiens, UniProt Q14781); assay: Direct fluorescence polarization (FP) binding assay
T1 construct: CBX chromodomain constructs; host or cells: E. coli BL21 CodonPlus RIL
T1 sequence (Q14781 12-70 limits assumed): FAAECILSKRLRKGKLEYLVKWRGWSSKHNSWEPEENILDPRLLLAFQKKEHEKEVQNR

[1] = target: T2, CBX7 binding to chromatin (Homo sapiens, UniProt O95931); assay: ChIP-qPCR in Hs68 fibroblast cells; assay type: cell-based; conditions: 100 μM, 4 h
T2 construct: endogenous in cells; host or cells: Hs68 fibroblasts (A17); HEK293T (A20)
Experimental: ChIP: Hs68 cells were seeded at 4×10^6 in a 10 cm cell culture plates 16 hours prior to treatment. Cells were treated with 100 μM SW2-110A or DMSO for four hours. ChIP was performed as described in Connelly et al., 2018. Birefly, cells were washed with PBS and fixed on the plate with CiA Fix buffer (50 mM HEPES, pH 8.0, 1 mM EDTA, 0.5 mM ETGA, 100 mM NaCl) and 1% formaldehyde for 10 min at room temperature. Crosslinking was quenched with 0.125 M glycine for 5 min at 4° C. Cells were washed once with PBS and lifted off the plate then resuspended in CiA NP Rinse buffer 1 (50 mM HEPES pH 8.0, 140 mM NaCl, 1 mM EDTA, 10% glycerol, 0.5% NP-40, 0.25% Triton X) for 10 min. Cells were pelleted at 1200×g for 5 min at 4° C. The supernatant was removed, and the cells were resuspended in CiA NP rinse buffer 2 (10 mM Tris pH 8.0, 1 mM EDTA, 0.5 mM EGTA, 200 mM NaCl). Cells were collected by centrifugation, 1200×g for 5 min. Supernatant was removed and the cells were washed twice with shearing buffer (0.1% SDS, 1 mM EDTA, 10 mM Tris HCl, pH 8.0). Cells were resuspended in shearing buffer and sonicated for 7 min with the probe (Branson). Lysate was centrifuged at 21,000×g for 15 min to remove debris. […]
qPCR: qPCR was performed on the isolated ChIP DNA using SYBR master mix (Thermo) and run on the BioRad CFX thermo cycler. […] Enrichment was determined by percent input. […]

T2 sequence (O95931 whole entry): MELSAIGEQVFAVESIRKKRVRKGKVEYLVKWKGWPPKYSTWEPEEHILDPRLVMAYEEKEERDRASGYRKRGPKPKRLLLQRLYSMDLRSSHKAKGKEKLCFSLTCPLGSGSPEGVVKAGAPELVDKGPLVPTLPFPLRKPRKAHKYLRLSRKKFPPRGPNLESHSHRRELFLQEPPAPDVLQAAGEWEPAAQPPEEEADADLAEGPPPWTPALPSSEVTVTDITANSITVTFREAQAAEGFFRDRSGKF

C#CCNC(=O)[C@H](CO)NC(=O)[C@H](CCCCN(CC)CC)NC(=O)[C@@H](NC(=O)[C@@H](NC(=O)[C@H](Cc1ccc(O)c(Cl)c1)NC(=O)c1cc(Cl)cc(Cl)c1)C1CCCC1)[C@@H](C)CC [SW2_152F] ({Benzoyl(3,5-Cl2)}-[Tyr(3-Cl)][Gly(cPent)]I[Lys(Et2)]S-{NH(propargyl)})
selectivity for CBX2 over the other paralogs (CBX2 ChD; calculated from Kd values): at least 24 fold
Kd (CBX2 ChD; read-out: Kd to CBX2): ~0.08 µM
CBX7 binding at target loci, ChIP-qPCR [1]: not CBX7 binding
